In patent US11642344B2, “Cholesteryl ester transfer protein (CETP) inhibitor and pharmaceutical compositions comprising said inhibitor for use in the treatment or prevention of cardiovascular diseases” (NewAmsterdam Pharma B.V., priority 2014, dated 2023):

Legend:
Format in all cases: in vivo, human
[1] = Clinical repeated dose study: safety assessments; settings: repeated doses up 25 mg once daily
Method: (§1) The clinical study was a repeated dose study in 5 groups of Caucasian male subjects aged 18 to 55 years. Each subject received a single oral dose of Compound A/placebo on Day 1, followed by once daily doses on Days 8 to 35 (5 mg Compound A/placebo—Group 1) or Days 8 to 28 (1, 2.5, 10 and 25 mg Compound A/placebo—Groups 2 to 5). All doses were administered at the study center after a standard breakfast. Subjects in each dose group were allocated to study treatment in a ratio of 10 Compound A to 2 placebo. Blood samples for pharmacokinetic and pharmacodynamic (CETP activity, CETP concentration, HDL-C, LDL-C, total cholesterol, triglycerides) assessments were collected from prior to each dose and at intervals throughout the study until 336 hours after the last dose. Secondary pharmacodynamic endpoints (including apolipoproteins A1, A2, B, and E, HDL2-C, HDL3-C, phospholipids, HDL-free cholesterol [HDL-FC], HDL-cholesteryl ester [HDL-CE], HDL-phospholipids [HDL-PL], HDL-triglycerides [HDL-TG], and LDL particle size) were measured at intervals until the last day of dosing. Urine was collected for pharmacokinetics from pre dose and at intervals up to 72 hours after the first and last dose. Safety assessments including adverse events, blood pressure and pulse rate, ECGs, laboratory safety tests (including aldosterone) and physical examinations were conducted throughout both studies.

[2] = Clinical repeated dose study: pharmacokinetics (LC/MS/MS plasma concentrations)
Method: as §1
(§2) Plasma and urine concentrations of Compound A were determined using validated liquid chromatography with tandem mass spectrometry (LC/MS/MS) methods. The lower limit of quantification (LLQ) for both assays was 0.500 ng/mL. Plasma concentration of CETP was determined using a validated enzyme-linked immunosorbent assay (ELISA) method with a lower limit of quantification (LLQ) of 0.500 μg/mL. CETP activity was determined as the rate of [^3H]-labeled CE transfer from donor HDL to acceptor VLDL/LDL. [^3H]CE-labeled HDL was added to human plasma and incubated for 4 hours at 37° C. Non-HDL lipoproteins were precipitated and separated from HDL, and the amount of radioactivity in the supernatant was quantitated. CETP activity was determined as the difference of the radioactivity between the samples incubated at 37° C. and 4° C. HDL-C and LDL-C were measured by homogenous enzymatic colorimetric assay using a Modular analyser (Roche Diagnostics). Total cholesterol and triglycerides were measured by homogenous enzymatic assay using a Modular analyser (cholesterol oxidase peroxidase-peroxidase aminophenazone phenol [CHOP-PAP]) method and a glycerol phosphate oxidase [GPO-PAP] method, respectively. ApoA1, ApoA2, ApoB and ApoE were measured by immunoturbidimetry using reagents from Rolf Greiner Biochemica (Germany) and N-apoprotein standard serum from Siemens (Germany). LDL particle size was determined by gradient gel electrophoresis. HDL fraction was separated by a combined ultracentrifugation-precipitation method (Beta-quantification). HDL-2 and HDL-3 fractions were then separated by further ultracentrifugation. Total-cholesterol in HDL, HDL-2 and HLD-3 fractions, free cholesterol in HDL fraction, triglycerides in HDL fraction and phospholipids in plasma and HDL-fraction were measured using enzymatic methods and reagents from Diasys Diagnostics (Germany). The measurements were performed on an Olympus AU600 automatic analyzer and were calibrated using secondary standards from Roche Diagnostics (Total-cholesterol, triglycerides) and Diasys Diagnostics (free cholesterol, phospholipids), respectively. Esterified cholesterol was calculated as the difference between total-cholesterol and free cholesterol.
(§3) The sample sizes for the study were chosen based on practical considerations rather than statistical power. The numbers of subjects in each group were considered to be adequate to assess the main objectives of each study. Subjects were allocated to Compound A or placebo in each group by means of a computer-generated randomization code. […]

[3] = tested on: HDL-C, LDL-C, total cholesterol, triglycerides; test: Clinical repeated dose study: HDL-C, LDL-C, total cholesterol, triglycerides and secondary lipid variables; settings: for Maximum % change from baseline in HDL-C concentration / Maximum % change from baseline in LDL-C concentration / Maximum % change from baseline in Total cholesterol / Maximum % change from baseline in Triglycerides: repeated oral doses, steady state, mean
Method: as §1, §2, §3

[4] = steady state, for a 25-fold increase in dose

Structure (SMILES): CCOC(=O)N1c2ccc(C(F)(F)F)cc2[C@@H](N(Cc2cc(C(F)(F)F)cc(C(F)(F)F)c2)c2ncc(OCCCC(=O)O)cn2)C[C@H]1CC [Compound A, {4-[(2-{[3,5-bis(trifluoromethyl)benzyl][(2R,4S)-1-(ethoxycarbonyl)-2-ethyl-6-(trifluoromethyl)-1,2,3,4-tetrahydroquinolin-4-yl]amino}pyrimidin-5-yl)oxy]butanoic acid}]
- effect on serum electrolyte or aldosterone concentrations [1]: no effect
- effects on blood pressure or heart rate, ECG variables, physical examination or laboratory safety tests [1]: no clinically significant effects
- serious adverse events [1]: no serious adverse events
- tolerability [1]: well tolerated
- accumulation with once daily dosing ([2]; 1 mg): approximately 6 fold
- accumulation with once daily dosing ([2]; 25 mg): 2 fold
- residual effects on cessation of dosing ([2]; at the claimed dose (1 to 25 mg per day)): does not show prolonged residual effects
- food effects ([2]; clinical studies): does not suffer from food effects
- half-life ([2]; male, human, plasma, oral, following the last dose, independent of dose, read-out: mean terminal half-life): 121 to 151 h
- Tmax ([2]; male, human, plasma, oral, post-dose, independent of dose, 1 to 25 mg, read-out: Tmax (median)): 4 to 6 h
- CVs for Cmax, Cmin and AUC parameters ([2]; single and multiple dosing): ≤ 33%
- increase of plasma concentrations with dose ([2]; single doses from 1 to 25 mg): approximately proportionally to dose
- increase in AUC0-tau,ss [2, 4]: 9 fold
- increase in Cmax,ss [2, 4]: 12 fold
- increase in Cmin,ss [2, 4]: 7 fold
- Maximum % change from baseline in HDL-C concentration ([3]; 1 mg once daily): 37.9%
- Maximum % change from baseline in LDL-C concentration ([3]; 1 mg once daily): −29.6%
- Maximum % change from baseline in Total cholesterol ([3]; 1 mg once daily): −12.7%
- Maximum % change from baseline in Triglycerides ([3]; 1 mg once daily): −50.2%
- Maximum % change from baseline in HDL-C concentration ([3]; 2.5 mg once daily): 95.6%
- Maximum % change from baseline in LDL-C concentration ([3]; 2.5 mg once daily): −39.1%
- Maximum % change from baseline in Total cholesterol ([3]; 2.5 mg once daily): −7.9%
- Maximum % change from baseline in Triglycerides ([3]; 2.5 mg once daily): −45.8%
- Maximum % change from baseline in HDL-C concentration ([3]; 5 mg once daily): 118%
- Maximum % change from baseline in LDL-C concentration ([3]; 5 mg once daily): −41.7%
- Maximum % change from baseline in Total cholesterol ([3]; 5 mg once daily): −1.4%
- Maximum % change from baseline in Triglycerides ([3]; 5 mg once daily): −20.3%
- Maximum % change from baseline in HDL-C concentration ([3]; 10 mg once daily): 140%
- Maximum % change from baseline in LDL-C concentration ([3]; 10 mg once daily): −43.6%
- Maximum % change from baseline in Total cholesterol ([3]; 10 mg once daily): 3.7%
- Maximum % change from baseline in Triglycerides ([3]; 10 mg once daily): −22.2%
- Maximum % change from baseline in HDL-C concentration ([3]; 25 mg once daily): 136%
- Maximum % change from baseline in LDL-C concentration ([3]; 25 mg once daily): −53.2%
- Maximum % change from baseline in Total cholesterol ([3]; 25 mg once daily): 7.5%
- Maximum % change from baseline in Triglycerides ([3]; 25 mg once daily): −31.4%
- changes in LDL particle size ([3]; repeated doses 1 to 25 mg): no noteworthy changes
